Results published in patent US7772216B2, “Protein kinase and phosphatase inhibitors and methods for designing them” (The Research Foundation of State University of New York, priority 2001, dated 2010).
Several values for one entry are separate records, joined by “and”; a condition that tells them apart may be missing. Identical values can stand only once. Like-named read-outs stand apart in the source and are kept apart here. Starred links: 1 amine or outer side, 2 acyl side, 3 side chain; linkers in the order of their positions; H or OH if unused. Non-standard residues stand in square brackets, D forms with d. Residues, ends and D or L forms follow the SMILES beside them. X5 = O=C([C@H](CNS(=O)(=O)O)N[*:1])[*:2]; X4 = O=C([C@H](CCCB(O)O)N[*:1])[*:2]

Legend:
[1] = target: T1, PKA (Homo sapiens, UniProt P17612); experiment: Literature Mimetic PKA assay; type: biochemical; details: for Ki: Literature Mimetic (L) conditions, pentapeptide PKA inhibitors; for IC50: Literature Mimetic; for inhibition at 1000 µM: 1000 μM inhibitor, L
Text: (§1) The boronic acid inhibitors 21-24 have two Arg's in their sequence also and therefore will bind to the phosphocellulose paper in addition to Kemptamide (although not as consistently or completely due to one less positive charge). Consequently, when analyzed as inhibitors, the amount of phosphorylated Kemptamide produced was not only counted, but also the amount of phosphorylated inhibitor simultaneously produced (e.g. see 26 below). The net result is that distorted IC50 curves are obtained which show net “stimulation” at higher inhibitor concentrations in some cases. […] The underlying substrate behavior of these “inhibitors” makes an accurate measurement of their inhibition potency impossible with the current assay. However, it does appear from the data that homologating the boronic acid functionality out with only CH2 groups (homologations with boronic acid non-peptide Src inhibitors may also be carried out) decreases the binding affinity and ability to function as a substrate.

[2] = target: EGFRTK (Homo sapiens, UniProt P00533); experiment: EGFRTK inhibition; type: biochemical; details: % inhibition at 10 micromolar compound
Text: (§2) Blanks for a particular enzyme indicate that inhibition was not found.

[3] = target: T2, PTP-1B (Homo sapiens, UniProt P18031); experiment: PTP-1B inhibition; type: biochemical; details: % inhibition at 10 micromolar compound
T2 sequence (P18031 1-435): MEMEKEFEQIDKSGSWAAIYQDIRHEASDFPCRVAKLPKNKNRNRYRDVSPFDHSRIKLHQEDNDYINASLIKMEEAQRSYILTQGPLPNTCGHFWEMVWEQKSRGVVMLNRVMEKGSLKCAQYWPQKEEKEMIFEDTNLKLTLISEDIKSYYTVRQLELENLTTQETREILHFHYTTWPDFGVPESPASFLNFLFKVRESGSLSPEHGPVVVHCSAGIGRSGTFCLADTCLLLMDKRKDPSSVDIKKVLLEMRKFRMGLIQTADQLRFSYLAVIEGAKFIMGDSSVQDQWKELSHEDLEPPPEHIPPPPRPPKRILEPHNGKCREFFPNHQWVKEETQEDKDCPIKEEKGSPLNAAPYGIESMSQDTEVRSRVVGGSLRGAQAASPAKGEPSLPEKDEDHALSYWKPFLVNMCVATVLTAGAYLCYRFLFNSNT
Text: as §2

[4] = target: pp60^c-src (Homo sapiens, UniProt P12931); experiment: Cellular Mimetic Src assay (RR-SRC phosphorylation); details: for Ki: Table IV; for inhibition at 1000 µM: read-out: % Inhibition of 2 mM RR-src at Inhibitor Concentration (1 mM); for inhibition at 45 µM: inhibitor at 45 μM
[5] = target: T1, PKA; experiment: Cellular Mimetic PKA assay; type: biochemical; details: for IC50: Cellular Mimetic
Text: as §1
Phosphorylated Kemptamide is SEQ. ID. No. 6. Phosphorylated 22 is SEQ. ID. No. 4. […] The graphs show their respective rates and levels of phosphorylation with the typical loss of initial velocity kinetics with time (due to substrate depletion and end product inhibition), analogous to a standard L-Ser substrate such as Kemptamide. The comparison of 21 to 22 shown was done in the same assay run, at identical boronic acid substrate concentrations, and with identical Cellular Mimetic assay solutions so that the cpm's could be directly compared. […] That the boronic acid moiety would be phosphorylated by PKA was surprising, but it is even more surprising that the phosphonic-boronic acid mixed anhydride produced (e.g. 26) was stable enough to survive the pH 7.2/37° C. assay incubation and then be isolated by binding to phosphocellulose paper after acid quenching of the reaction with 10% TCA and washing the phosphocellulose paper with 25 mM phosphoric acid (3×). An STN substructure search was run on mixed anhydrides of phosphoric and boronic acids and found only three references to experiments and theoretical calculations for the analogous putative (but not proven) anhydride formed from boric acid and phosphoric acid as a solid surface impregnated catalyst for the partial oxidation of ethane to acetaldehyde at 823° K. (Zhanpeisov & Otsuka, 1992, Otsuka et al., 1992, Murakami et al., 1990). However, this highly unusual anhydride has never before been synthesized free of a solid surface, isolated, or characterized. Thus, this is a novel enzymatic reaction and chemical entity with interesting possibilities for protein kinase inhibitor designs.

[6] = IC50 μM (cond. C, 4 h preincubation), 4 h preincubation
[7] = read-out: % Inhibition of 2 mM RR-src at Inhibitor Concentration (100 μM)

EGFRTK, sequence (P00533 25-1210): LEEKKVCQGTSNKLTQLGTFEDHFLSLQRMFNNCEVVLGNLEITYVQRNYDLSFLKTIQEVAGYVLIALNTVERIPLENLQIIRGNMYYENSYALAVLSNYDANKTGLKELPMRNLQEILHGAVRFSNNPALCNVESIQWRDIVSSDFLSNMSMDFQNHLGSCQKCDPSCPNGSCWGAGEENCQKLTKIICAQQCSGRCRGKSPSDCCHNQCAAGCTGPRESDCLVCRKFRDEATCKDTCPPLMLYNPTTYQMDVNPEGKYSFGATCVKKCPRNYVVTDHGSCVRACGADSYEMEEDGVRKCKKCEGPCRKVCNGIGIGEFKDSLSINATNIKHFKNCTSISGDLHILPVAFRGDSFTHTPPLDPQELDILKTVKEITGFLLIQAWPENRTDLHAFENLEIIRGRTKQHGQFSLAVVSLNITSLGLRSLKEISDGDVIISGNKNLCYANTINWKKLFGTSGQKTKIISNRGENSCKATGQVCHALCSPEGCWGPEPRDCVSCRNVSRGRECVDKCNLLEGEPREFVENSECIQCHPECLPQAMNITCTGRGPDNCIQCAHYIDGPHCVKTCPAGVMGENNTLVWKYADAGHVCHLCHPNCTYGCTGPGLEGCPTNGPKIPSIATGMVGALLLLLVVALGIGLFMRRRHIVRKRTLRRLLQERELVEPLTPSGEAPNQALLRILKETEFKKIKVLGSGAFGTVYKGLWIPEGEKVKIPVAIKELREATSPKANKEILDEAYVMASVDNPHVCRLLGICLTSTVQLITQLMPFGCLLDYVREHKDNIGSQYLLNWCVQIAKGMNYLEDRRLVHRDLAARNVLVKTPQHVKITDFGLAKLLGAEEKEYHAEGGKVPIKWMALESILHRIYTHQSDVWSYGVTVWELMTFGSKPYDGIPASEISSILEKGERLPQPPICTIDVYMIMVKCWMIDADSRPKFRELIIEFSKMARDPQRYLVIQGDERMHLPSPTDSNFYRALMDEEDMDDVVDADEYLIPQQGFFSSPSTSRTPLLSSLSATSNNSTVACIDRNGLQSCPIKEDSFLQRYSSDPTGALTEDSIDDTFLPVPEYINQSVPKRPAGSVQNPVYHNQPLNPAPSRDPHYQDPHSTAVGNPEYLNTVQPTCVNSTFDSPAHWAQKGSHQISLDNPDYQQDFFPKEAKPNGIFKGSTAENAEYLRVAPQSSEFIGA
pp60^c-src, sequence (P12931 whole entry): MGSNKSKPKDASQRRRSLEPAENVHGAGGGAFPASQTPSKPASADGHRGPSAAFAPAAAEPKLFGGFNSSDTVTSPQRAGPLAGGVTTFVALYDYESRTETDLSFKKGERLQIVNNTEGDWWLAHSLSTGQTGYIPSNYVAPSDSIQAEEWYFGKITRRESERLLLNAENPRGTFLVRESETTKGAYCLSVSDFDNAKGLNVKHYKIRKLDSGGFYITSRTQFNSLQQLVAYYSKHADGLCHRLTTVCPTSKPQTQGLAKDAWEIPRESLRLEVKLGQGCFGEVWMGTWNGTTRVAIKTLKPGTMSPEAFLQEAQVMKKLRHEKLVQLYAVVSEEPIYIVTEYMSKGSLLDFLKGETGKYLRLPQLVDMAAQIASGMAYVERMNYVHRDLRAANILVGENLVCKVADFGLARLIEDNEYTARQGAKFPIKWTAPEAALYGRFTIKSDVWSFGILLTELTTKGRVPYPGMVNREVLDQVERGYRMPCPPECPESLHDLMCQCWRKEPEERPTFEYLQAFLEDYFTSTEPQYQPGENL

CC[C@H](C)[C@H](NC(=O)[C@H](CNS(=O)(=O)O)NC(=O)CNC(=O)[C@H](CCCNC(=N)N)NC(=O)[C@H](CCCNC(=N)N)NC(C)=O)C(N)=O [Compound 8] (Ac-RRG[X5]I-NH2)
Ki ([1]; Ki): 0.16 µM

O=C(NCc1ccc(Br)cc1)c1cc2cc(F)ccc2[nH]1 [Compound 1kkkk]
EGFRTK @ 10 μm [2]: 30%

COc1cccc([C@H](C)NC(=O)c2cc3cc(F)ccc3[nH]2)c1 [Compound 1aa]
EGFRTK @ 10 μm [2]: 12%

O=C(NCc1ccc(Cl)cc1)c1[nH]c2ccc(F)cc2c1-c1ccccc1 [Compound 2gg]
PTP-1B @ 10 μm [3]: 12%

O=C(NCc1ccc(O)c(O)c1)c1cc2cc(F)ccc2[nH]1 [Compound 1gggg]
EGFRTK @ 10 μm [2]: 25%

O=S(=O)(O)Nc1ccc2ccccc2c1 [Compound 28]
IC50 [4]: 1600 µM | Ki [4]: 963 µM | inhibition at 1000 µM [4]: 31%

Cc1ccccc1CNC(=O)c1cc2cc(F)ccc2[nH]1 [Compound 1ffff]
EGFRTK @ 10 μm [2]: 12%

Oc1cc(O)cc(/C=C/c2ccc(O)c(O)c2)c1 [drawing 66, piceatannol, reference compound]
inhibition at 100 µM ([4]; read-out: % Inhibition of 2 mM RR-src at Inhibitor Concentration (100 μM), Table V, inhibitor 100 μM): 41%

Ac-RRGAI-NH2 [Compound 20]
IC50 ([1]; IC50 μM (cond. L, 4 h preincubation), 4 h preincubation, * very distorted IC50 curve): 417 µM | Ki ([1]; read-out: Ki): ~9 µM and 9 µM | IC50 ([1]; 0 h preincubation, read-out: IC50 μM (cond. L, 0 h preincubation)): 278 µM | Ki ([5]; Cellular Mimetic (C) conditions): 25 µM | IC50 ([5]; 0 h preincubation, * very distorted IC50 curve, read-out: IC50 μM (cond. C, 0 h preincubation)): 41 µM | IC50 [5, 6]: 50 µM

CC[C@H](C)[C@H](NC(=O)[C@H](CCCB(O)O)NC(=O)CNC(=O)[C@H](CCCNC(=N)N)NC(=O)[C@H](CCCNC(=N)N)NC(C)=O)C(N)=O (Ac-RRG[X4]I-NH2)
inhibition at 1000 µM ([1]; 0 h preincubation): 33% | inhibition at 1000 µM ([1]; 4 h preincubation): 44% | % sti (stimulation) ([5]; 2000 μM inhibitor, C, 0 h preincubation): 2000 μM 6% sti | IC50 [5, 6]: 1730 µM

O=C(NCc1ccc(F)cc1)c1cc2cc(F)ccc2[nH]1 [Compound 1uuu]
PTP-1B @ 10 μm [3]: 13%

O=C(NCc1cccc(O)c1)c1cc2cc(O)ccc2[nH]1 [Cmpd 2k]
inhibition at 45 µM ([4]; [ATP] 200 μM): 46% | inhibition at 45 µM ([4]; [ATP] 1,000 μM): 41% | inhibition at 100 µM ([4]; read-out: % Inhibition at 100 μM (std. dev.), Table X, hydroxyindole derivatives): 74%

O=C(N[C@@H](c1ccccc1)[C@@H](O)c1ccccc1)c1cc2cc(F)ccc2[nH]1 [Compound 1dd]
EGFRTK @ 10 μm [2]: 41%

O=C(NCc1ccc(Cl)cc1Cl)c1cc2cc(F)ccc2[nH]1 [Compound 1ss]
PTP-1B @ 10 μm [3]: 12%

O=C(Nc1cccc(CO)c1)c1cc2cc(F)ccc2[nH]1 [Compound 1yyy]
EGFRTK @ 10 μm [2]: 11%

OB(O)c1ccc(-c2ccccc2)cc1
inhibition at 100 µM [4, 7]: 13%

COc1ccc(CNC(=O)c2cc3cc(F)ccc3[nH]2)cc1 [Compound 1ee]
EGFRTK @ 10 μm [2]: 16%

O=C(NCc1ccc(F)cc1C(F)(F)F)c1[nH]c2ccc(F)cc2c1-c1ccccc1 [Compound 2hh]
EGFRTK @ 10 μm [2]: 12%

N=c1oc2c(O)cccc2cc1C(=O)Nc1cccc(O)c1 [Iminochromene 9TA, reference compound]
% Inhibition at 100 μM (std. dev.) ([4]; Table IX, hydroxynaphthalene derivatives and published inhibitors): 30 (+/−15) % | inhibition at 100 µM ([4]; read-out: % Inhibition at 100 μM (std. dev.)): 30%

OB(O)c1ccc2ccccc2c1 [Compound 27, 2-naphthalene boronic acid]
IC50 [4]: 950 µM | Ki [4]: ~554 µM and 554 µM | inhibition at 100 µM [4, 7]: 13% | inhibition at 1000 µM [4]: 59%

O=C(Nc1ccccc1CO)c1cc2cc(F)ccc2[nH]1 [Compound 1xxx]
PTP-1B @ 10 μm [3]: 12%
